Data reported in patent EP2881391A1, “Spiroindoline carbocycle derivatives and pharmaceutical compositions thereof” (Bayer Pharma Aktiengesellschaft, priority 2013, dated 2015).

What follows are compounds tested against T1, human GnRH receptor (Homo sapiens, UniProt P30968) (assay: IP-One HTRF assay (inhibition of GnRH-R activation by buserelin)). Conditions: IP-One HTRF assay with buserelin (at EC80) stimulation; CHO cells stably expressing human GnRH receptor; tested 20 µM to 1 nM; read-out: Potency IC50.
T1 construct: line established by Prof; Thomas Gudermann; host or cells: CHO cells
T1 sequence (P30968 1-328): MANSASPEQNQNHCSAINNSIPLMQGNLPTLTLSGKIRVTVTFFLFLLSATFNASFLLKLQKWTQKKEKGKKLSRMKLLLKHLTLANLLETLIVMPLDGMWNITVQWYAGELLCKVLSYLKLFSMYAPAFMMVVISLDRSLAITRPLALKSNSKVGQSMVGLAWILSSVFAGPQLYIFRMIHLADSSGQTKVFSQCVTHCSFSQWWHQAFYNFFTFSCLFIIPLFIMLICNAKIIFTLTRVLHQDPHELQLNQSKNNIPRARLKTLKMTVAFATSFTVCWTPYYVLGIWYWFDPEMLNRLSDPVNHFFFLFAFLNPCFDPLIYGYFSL
Assay type: cell-based
From the text: By using homogenous time-resolved fluorescence resonance energy transfer (HTRF), the generation of one component of the GnRH-R signalling cascade can be measured. After stimulation of CHO cells stably expressing human GnRH receptor (established by Prof. Thomas Gudermann, currently University of Marburg, Germany; supplied as frozen cell aliquots by Cell Culture Services, Hamburg, Germany) with the EC80 of the GnRH agonist buserelin, Gq protein-coupled receptor signalling cascade is activated resulting in PLC-dependent cleavage of PIP2 to Inositol-1,4,5-triphosphate (IP3) and Diacylglycerol. The second messenger IP3 is degraded intracellularly to myo-inositol. Inhibition of the final degradation step from Inositol-1-phosphate (IP1) to myo-inositol by addition of lithium chloride leads to accumulation of IP1 in the cells. In cell lysates, IP1 can be detected via an antibody-based HTRF detection technology, where IP1 can displace the FRET acceptor IP1-d2 from binding by Terbium-labelled anti-IP1 antibody as donor resulting in a signal decrease. Compounds were tested for their capability of inhibiting GnRH-R activation by buserelin. For all IP-One HTRF® assays reagents of Cisbio Bioassays (IP-One Tb Jumbo kit, #62IPAPEJ; Cisbio Bioassays, Bagnols sur Cèze Cedex, France) were used.
For the assay, frozen cell aliquots were thawed and a cell suspension (3.33x10^6 cells/ml) containing IP1-d2 (dilution 1:40) was prepared and incubated at 37°C. After 1 h 3 µl of the cell suspension were added to 50 nl of a 100-fold concentrated solution of the test compound in DMSO pre-dispensed in a well of a white low-volume 384-well microtiter plate (Greiner Bio-One, Frickenhausen, Germany). The mixture was incubated for 20 min at 22°C to allow for pre-binding of the test compound to the GnRH-R. The receptor signaling cascade was stimulated by addition of 2 µl buserelin or LHRH (at EC50 or EC80) in stimulation buffer (10 mM Hepes pH 7.4, 1 mM CaCl2, 0.5 mM MgCl2, 4.2 mM KCI, 146 mM NaCl, 5.5 mM α-D-Glucose, 0.05% BSA, 125 mM LiCl (final assay concentration 50 mM) in aqua dest.). Plates were incubated for 1 h at 37°C and 5% carbon dioxide before the cells were lysed by adding 3 µl Terbium-labelled anti-IP1 antibody (1:40) diluted in Conjugate & Lysis buffer as supplied with the kit. After an incubation for 1 h at 22°C to enable complete cell lysis and antibody binding to free IP1 or IP1-d2, plates were measured in an HTRF reader, e.g. a RUBYstar, PHERAstar (both BMG Labtechnologies, Offenburg, Germany) or a Viewlux (PerkinElmer LAS, Rodgau-Jügesheim, Germany). From the fluorescence emissions at 665 nm (FRET) and at 620 nm (background signal of Terbium-antibody), the ratio (emission at 665 nm divided by emission at 620 nm) was calculated and the data were normalized (reaction without test compound = 0% inhibition; all other assay components except agonist = 100% inhibition). On the same microtiter plate, compounds were tested at 10 different concentrations in the range of 20 µM to 1 nM (20 µM, 6.7 µM, 2.2 µM, 0.74 µM, 0.25 µM, 82 nM, 27 nM, 9.2 nM, 3.1 nM and 1 nM; dilution series prepared before the assay at the level of the 100-fold conc. stock solutions by serial 1:3 dilutions in 100% DMSO) in duplicate values for each concentration. By using an in-house software, the IC50 values were calculated by a 4 parameter fit. The data reveal that the compounds of the present invention have antagonist activities on the human GnRH receptor. Within the meaning of the present invention the antagonist activity is reflected by the ability of a compound of the invention to antagonize human GnRH receptor stimulation in IP-One HTRF® assay at least three times the standard deviation over the background level.

SMILES | IC50
CC(C)=CCC1N(S(=O)(=O)c2ccc(F)cc2)c2ccc(C(=O)Nc3cc[nH]n3)cc2C12CCC(O)(C(F)(F)F)CC2 (stereo not shown) [Example 12, 1'-[(4-fluorophenyl)sulfonyl]-4-hydroxy-2'-(3-methylbut-2-en-1-yl)-N-(1H-pyrazol-3-yl)-4-(trifluoromethyl)-1',2'-dihydrospiro[cyclohexane-1,3'-indole]-5'-carboxamide] | 1420 nM
CC(C)=CCC1N(S(=O)(=O)c2ccc(F)cc2)c2ccc(C(=O)Nc3cccc(C)c3)cc2C12CCC(O)(C(F)(F)F)CC2 (stereo not shown) [Example 13, 1'-[(4-fluorophenyl)sulfonyl]-4-hydroxy-2'-(3-methylbut-2-en-1-yl)-N-(3-methylphenyl)-4-(trifluoromethyl)-1',2'-dihydrospiro[cyclohexane-1,3'-indole]-5'-carboxamide] | 3250 nM
CC(C)=CCC1N(S(=O)(=O)c2ccc(F)cc2)c2ccc(C(=O)Nc3cccc(C(=O)O)c3)cc2C12CCC(O)(C(F)(F)F)CC2 (stereo not shown) [Example 14, 3-[({1'-[(4-fluorophenyl)sulfonyl]-4-hydroxy-2'-(3-methylbut-2-en-1-yl)-4-(trifluoromethyl)-1',2'-dihydrospiro[cyclohexane-1,3'-indol]-5'-yl}carbonyl)amino] benzoic acid] | 639 nM
CC(C)=CCC1N(S(=O)(=O)c2ccc(F)cc2)c2ccc(C(=O)Nc3cccc(S(C)(=O)=O)c3)cc2C12CCC(O)(C(F)(F)F)CC2 (stereo not shown) [Example 15, 1'-[(4-fluorophenyl)sulfonyl]-4-hydroxy-2'-(3-methylbut-2-en-1-yl)-N-[3-(methylsulfonyl)phenyl]-4-(trifluoromethyl)-1',2'-dihydrospiro[cyclohexane-1,3'-indole]-5'-carboxamide] | 1280 nM
CC(C)=CCC1N(S(=O)(=O)c2ccc(F)cc2)c2ccc(C(=O)Nc3cccc(S(N)(=O)=O)c3)cc2C12CCC(O)(C(F)(F)F)CC2 (stereo not shown) [Example 16, 1'-[(4-fluorophenyl)sulfonyl]-4-hydroxy-2'-(3-methylbut-2-en-1-yl)-N-(3-sulfamoylphenyl)-4-(trifluoromethyl)-1',2'-dihydrospiro[cyclohexane-1,3'-indole]-5'-carboxamide] | 1850 nM
CC(C)=CCC1N(S(=O)(=O)c2ccc(F)cc2)c2ccc(C(=O)Nc3ccon3)cc2C12CCC(O)(C(F)(F)F)CC2 (stereo not shown) [Example 17, 1'-[(4-fluorophenyl)sulfonyl]-4-hydroxy-2'-(3-methylbut-2-en-1-yl)-N-(1,2-oxazol-3-yl)-4-(trifluoromethyl)-1',2'-dihydrospiro[cyclohexane-1,3'-indole]-5'-carboxamide] | 524 nM
CC(C)=CCC1N(S(=O)(=O)c2ccc(F)cc2)c2ccc(C(=O)Nc3cncc(C)c3)cc2C12CCC(O)(C(F)(F)F)CC2 (stereo not shown) [Example 18, 1'-[(4-fluorophenyl)sulfonyl]-4-hydroxy-2'-(3-methylbut-2-en-1-yl)-N-(5-methylpyridin-3-yl)-4-(trifluoromethyl)-1',2'-dihydrospiro[cyclohexane-1,3'-indole]-5'-carboxamide] | 1840 nM
CC(C)=CCC1N(S(=O)(=O)c2ccc(F)cc2)c2ccc(C(=O)Nc3cncc(C(F)(F)F)c3)cc2C12CCC(O)(C(F)(F)F)CC2 (stereo not shown) [Example 19, 1'-[(4-fluorophenyl)sulfonyl]-4-hydroxy-2'-(3-methylbut-2-en-1-yl)-4-(trifluoromethyl)-N-[5-(trifluoromethyl)pyridin-3-yl]-1',2'-dihydrospiro[cyclohexane-1,3'-indole]-5'-carboxamide] | 9400 nM
CC(C)=CCC1N(S(=O)(=O)c2ccc(F)cc2)c2ccc(C(=O)Nc3ncco3)cc2C12CCC(O)(C(F)(F)F)CC2 (stereo not shown) [Example 20, 1'-[(4-fluorophenyl)sulfonyl]-4-hydroxy-2'-(3-methylbut-2-en-1-yl)-N-(1,3-oxazol-2-yl)-4-(trifluoromethyl)-1',2'-dihydrospiro[cyclohexane-1,3'-indole]-5'-carboxamide] | 655 nM
CC(C)=CCC1N(S(=O)(=O)c2ccc(F)cc2)c2ccc(C(=O)NCC3CCCCC3)cc2C12CCC(O)(C(F)(F)F)CC2 (stereo not shown) [Example 21, N-(cyclohexylmethyl) -1'-[(4-fluorophenyl)sulfonyl]-4-hydroxy-2'-(3-methylbut-2-en-1-yl)-4-(trifluoromethyl)-(trifluoromethyl)-1',2'-dihydrospiro[cyclohexane-1,3'-indole]-5'-carboxamide] | 13200 nM
CC(C)=CCC1N(S(=O)(=O)c2ccc(F)cc2)c2ccc(C(=O)NCc3ccccc3Cl)cc2C12CCC(O)(C(F)(F)F)CC2 (stereo not shown) [Example 22, N-(2-chlorobenzyl)-1'-[(4-fluorophenyl)sulfonyl]-4-hydroxy-2'-(3-methylbut-2-en-1-yl)-4-(trifluoromethyl)-1',2'-dihydrospiro[cyclohexane-1,3'-indole]-5'-carboxamide] | 745 nM
CC(C)=CCC1N(S(=O)(=O)c2ccc(F)cc2)c2ccc(C(=O)NCc3ncccc3C(F)(F)F)cc2C12CCC(O)(C(F)(F)F)CC2 (stereo not shown) [Example 23, 1'-[(4-fluorophenyl)sulfonyl]-4-hydroxy-2'-(3-methylbut-2-en-1-yl)-4-(trifluoromethyl)-N-{[3-(trifluoromethyl)pyridin-2-yl]methyl}-1',2'-dihydrospiro[cyclohexane-1,3'-indole]-5'-carboxamide] | 713 nM
Cc1cccc(NC(=O)c2ccc3c(c2)C2(CCC(O)(C(F)(F)F)CC2)C(C2CC2)N3S(=O)(=O)c2ccc(F)cc2)c1 (stereo not shown) [Example 24, 2'-cyclopropyl-1'-[(4-fluorophenyl)sulfonyl]-4-hydroxy-N-(3-methylphenyl)-4-(trifluoromethyl)-1',2'-dihydrospiro[cyclohexane-1,3'-indole]-5'-carboxamide] | 796 nM
Cc1cncc(NC(=O)c2ccc3c(c2)C2(CCC(O)(C(F)(F)F)CC2)C(C2CC2)N3S(=O)(=O)c2ccc(F)cc2)c1 (stereo not shown) [Example 25, 2'-cyclopropyl-1'-[(4-fluorophenyl)sulfonyl]-4-hydroxy-N-(5-methylpyridin-3-yl)-4-(trifluoromethyl)-1',2'-dihydrospiro[cyclohexane-1,3'-indole]-5'-carboxamide] | 559 nM
CC1N(S(=O)(=O)c2ccc(F)cc2)c2ccc(C(=O)NCc3ccccc3Cl)cc2C12CCC(O)(C(F)(F)F)CC2 (stereo not shown) [Example 26, N-(2-chlorobenzyl)-1'-[(4-fluorophenyl)sulfonyl]-4-hydroxy-2'-methyl-4-(trifluoromethyl)-1',2'-dihydrospiro[cyclohexane-1,3'-indole]-5'-carboxamide] | 432 nM
COC(=O)c1cccc(S(=O)(=O)N2c3ccc(C(=O)Nc4ccon4)cc3C3(CCC(O)(C(F)(F)F)CC3)C2C2CC2)c1 (stereo not shown) [Example 27, methyl 3-{[2'-cyclopropyl-4-hydroxy-5'-(1,2-oxazol-3-ylcarbamoyl)-4-(trifluoromethyl)spiro[cyclohexane-1,3'-indol]-1'(2'H)-yl]sulfonyl}benzoate] | 1120 nM
